Data reported in publication PMC5699961 (Clinical pharmacokinetics, 2018).
Where two headings read alike, the source gives them in different places.

What was measured:
healthy subjects = test: Exposure-safety analysis; format: in vivo, human
[1] = system: patients with solid tumors; conditions: cited from earlier work
[2] = system: swine subjected to hemorrhage and polytrauma; conditions: intravenous VPA, absence of isotonic fluid resuscitation; cited from earlier work
blood brain barrier = conditions: swine subjected to TBI and hemorrhagic shock; cited from earlier work
[3] = 140 mg/kg dose, oral dosing; cited from earlier work
[4] = Single-dose plasma pharmacokinetics of intravenous VPA; conditions: for concentration at 24 h / AUC / AUC(0-inf) / Cmax / half-life: human, plasma; for concentration at 24 h: intravenous; for AUC / AUC(0-inf) / Cmax / half-life: iv
[5] = 2-Compartment population model (final model), mean (SD)
[6] = 3-Compartment population model, mean (SD)

CCCC(CCC)C(=O)O [VPA, valproic acid]
Dose breakpoint for occurrence of adverse events (healthy subjects; Chills): > 6597 mg
Dose breakpoint for occurrence of adverse events (healthy subjects; Hearing adverse events): > 3222 mg
Maximum tolerated dose (MTD) ([1]; cancer patients, intravenous, daily for five days): 60 mg/kg/day
Previously established maximum tolerated single intravenous dose ([1]; ref 21): 60 mg/kg
Previously established maximum intravenous dose ([1]; ref 22): 75 mg
Previously established maximum tolerated single intravenous dose ([1]; ref 22): 75 mg/kg
Decrease in mortality [2]: 50%
Expression of tight-junction and basement membrane associated proteins (zona occludin-1, laminin, claudin-5) (blood brain barrier): increased expression
Peak plasma concentrations [3]: 300 to 400 µg/mL
Q1, intercompartmental clearance between central and first peripheral compartment [4, 5]: 0.64 (0.32) L/h
Vc, volume of distribution of the central compartment [4, 5]: 11.1 (2.62) L
Vp1, volume of distribution of the first peripheral compartment [4, 5]: 7.70 (3.28) L
Q1, intercompartmental clearance between central and first peripheral compartment [4, 6]: 0.62 (0.29) L/h
Q2, intercompartmental clearance between central and second peripheral compartment [4, 6]: 3.48(1.47) L/h
Vp1, volume of distribution of the first peripheral compartment [4, 6]: 7.63 (3.29) L
Vp2, volume of distribution of the second peripheral compartment [4, 6]: 0.32(0.06) L
concentration at 24 h ([4]; 15 mg/kg): 22.6 µg/mL
concentration at 24 h ([4]; 30 mg/kg): 39.5 µg/mL
concentration at 24 h ([4]; 60 mg/kg): 39.8 µg/mL
concentration at 24 h ([4]; 90 mg/kg): 56.9 µg/mL
concentration at 24 h ([4]; 120 mg/kg): 49.7 µg/mL
concentration at 24 h ([4]; 130 mg/kg): 97.2 µg/mL
concentration at 24 h ([4]; 140 mg/kg): 140 µg/mL
concentration at 24 h ([4]; 150 mg/kg): 81.4 µg/mL
AUC ([4]; 15 mg/kg): 1180 µg·h/mL
AUC(0-inf) ([4]; 15 mg/kg): 1710 µg·h/mL
Cmax ([4]; 15 mg/kg): 112 µg/mL
half-life ([4]; 15 mg/kg): 12.1 h
AUC ([4]; 30 mg/kg): 2200 µg·h/mL
AUC(0-inf) ([4]; 30 mg/kg): 3390 µg·h/mL
Cmax ([4]; 30 mg/kg): 235 µg/mL
half-life ([4]; 30 mg/kg): 12.1 h
AUC ([4]; 60 mg/kg): 2240 µg·h/mL
AUC(0-inf) ([4]; 60 mg/kg): 3040 µg·h/mL
Cmax ([4]; 60 mg/kg): 248 µg/mL
half-life ([4]; 60 mg/kg): 11.3 h
AUC ([4]; 90 mg/kg): 4630 µg·h/mL
AUC(0-inf) ([4]; 90 mg/kg): 5810 µg·h/mL
Cmax ([4]; 90 mg/kg): 541 µg/mL
half-life ([4]; 90 mg/kg): 8.9 h
AUC ([4]; 120 mg/kg): 3840 µg·h/mL
AUC(0-inf) ([4]; 120 mg/kg): 4980 µg·h/mL
Cmax ([4]; 120 mg/kg): 537 µg/mL
half-life ([4]; 120 mg/kg): 9 h
AUC ([4]; 130 mg/kg): 7740 µg·h/mL
AUC(0-inf) ([4]; 130 mg/kg): 11300 µg·h/mL
Cmax ([4]; 130 mg/kg): 855 µg/mL
half-life ([4]; 130 mg/kg): 8.8 h
AUC ([4]; 140 mg/kg): 9870 µg·h/mL
AUC(0-inf) ([4]; 140 mg/kg): 13500 µg·h/mL
Cmax ([4]; 140 mg/kg): 1270 µg/mL
half-life ([4]; 140 mg/kg): 9.7 h
AUC ([4]; 150 mg/kg): 6910 µg·h/mL
AUC(0-inf) ([4]; 150 mg/kg): 8520 µg·h/mL
Cmax ([4]; 150 mg/kg): 694 µg/mL
half-life ([4]; 150 mg/kg): 7.9 h
